This passage reports Emax and EC50 results from US20250388584A1, “TPK AGONIST AND METHOD FOR TREATING NEURODEGENERATIVE DISEASES USING SAME” (SHANGHAI RAISING PHARMACEUTICAL CO., LTD., priority 2022, published 2025).

For orientation: Emax means the maximal effect, on the per cent scale that the assay sets. As usually defined, the EC50 is the concentration at which the effect is half-maximal. Read a low EC50 as greater potency.

In the experiment the target is TPK enzyme (Homo sapiens (Human), UniProt Q9H3S4). Kind of experiment: TPK enzyme activity test. The class given is biochemical. To be noted: for Emax: calculated with the effect of DMSO on TPK enzyme activity as 100%, read-out: Emax; for EC50: promoting effect on TPK enzyme activity.
Chain of TPK enzyme (Q9H3S4 whole entry): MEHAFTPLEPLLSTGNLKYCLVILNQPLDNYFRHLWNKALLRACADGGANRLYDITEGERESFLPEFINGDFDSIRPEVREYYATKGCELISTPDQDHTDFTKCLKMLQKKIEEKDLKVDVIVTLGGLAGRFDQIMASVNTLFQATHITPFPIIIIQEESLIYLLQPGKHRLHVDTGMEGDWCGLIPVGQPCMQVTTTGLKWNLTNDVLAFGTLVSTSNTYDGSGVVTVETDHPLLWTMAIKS

As for `Cc1ccc2c(c1)-c1ncn(CCC(=O)N3CCN(c4cccc(C(F)(F)F)c4)CC3)c(=O)c1CC2` [Compound 215, 9-methyl-3-(3-oxo-3-(4-(3-(trifluoromethyl)phenyl)piperazin-1-yl)propyl)-5,6-dihydrobenzo[h]quinazolin-4(3H)-one], the Emax was 173% and a half-maximal response (EC50) required 1130 nM. For the compound `COc1ccc2[nH]c(=O)c3c(ncn3CCCC(=O)N3CCN(c4cccc(Cl)c4Cl)CC3)c2c1` [Compound 231, 3-(4-(4-(2,3-dichlorophenyl)piperazin-1-yl)-4-oxobutyl)-8-methoxy-3,5-dihydro-4H-imidazo[4,5-c]quinolin-4-one], the Emax was 137% and the midpoint of the response, the EC50, lay at 2260 nM. Turning to `O=C(CCn1cnc2c(oc3ccc(F)cc32)c1=O)N1CCC(Cc2ccc(F)cc2)CC1` [Compound 150, 8-fluoro-3-(3-(4-(4-fluorobenzyl)piperidin-1-yl)-3-oxopropyl)benzofuro[3,2-d]pyrimidin-4(3H)-one], the Emax was 171% and the concentration giving a half-maximal response (EC50) stood at 1990 nM.

Consider `Cc1ccc2[nH]c3c(=O)n(CCC(=O)N4CCN(c5cccc(Cl)c5Cl)CC4)cnc3c2c1` [Compound 1, 3-(3-(4-(2,3-dichlorophenyl)piperazin-1-yl)-3-oxopropyl)-8-methyl-3,5-dihydro-4H-pyrimido[5,4-b]indol-4-one], for which the Emax is 159% and the midpoint of the response, the EC50, lay at 110 nM. In the case of `COc1ccccc1N1CCN(C(=O)CCn2cnc3c([nH]c4ccc(C)cc43)c2=O)CC1` [Compound 47], the Emax was 135%.
